# Measurements reported in ChEMBL document CHEMBL1158006, “Alkylfurans: effects of alkyl side-chain length on insecticidal activity” (1999).
# The source made the active and inactive calls. No cut-off for these calls is given here.
# Experiments:
# Spodoptera exigua [1] = assay: Insecticidal activity against Spodoptera exigua assessed as increase of larval mortality at 5 umol/g in artificial diet after 9 days relative to control; assay type: functional
# Spodoptera exigua [2] = assay: Insecticidal activity against Spodoptera exigua; assay type: functional
# Spodoptera exigua [3] = assay: Insecticidal activity against Spodoptera exigua assessed as reduction of weight at 5 umol/g in artificial diet after 9 days relative to control; assay type: functional, organism-based
Structure (SMILES),Activity (Spodoptera exigua [1]) [%],LC50 (Spodoptera exigua [2]) [µg/g],Activity (Spodoptera exigua [3])
CCCCCCCCCCCCCCCCCc1ccco1 [2-(HEPTADECYL)FURAN],95,1206,–
CCCCCCCCCCCCCCc1ccco1,<50,–,Active
CCCCCCCCCCCCCCCCCCc1ccco1,68,–,–
CCCCCCCCCCCCCCCc1ccco1,93,1031,–
